Reference: PubChem BioAssay AID248 (DTP/NCI, 2004)
Values joined by “and” are separate entries in the source; they are usually repeats but may differ in a detail not shown here. Identical values can stand only once. Inconclusive results and toxic doses are left out. Rule as the data show it: active = T/C of 150% or more; inactive = T/C below 125%.

System: L1210 leukemia ip in BDF1 mice, survival T/C
Assay: NCI In Vivo Anticancer Drug Screen. Data for tumor model L1210 Leukemia (intraperitoneal) in B6D2F1 (BDF1) mice
Conditions: endpoint: mean survival time, higher = longer survival
Procedure, shortened: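 Tumor was transplanted into mice, which were then dosed with test compound or vehicle alone. Survival was recorded for each group, and the treated figure was expressed relative to the control figure.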

[1] = dose: 100.0 mg/kg/injection, schedule: Q04DX003 (ip), vehicle: saline
[2] = dose: 200.0 mg/kg/injection, schedule: Q04DX003 (ip), vehicle: saline
[3] = dose: 400.0 mg/kg/injection, schedule: Q04DX003 (ip), vehicle: saline
[4] = dose: 100.0 mg/kg/injection, schedule: Q01DX009 (ip), vehicle: saline with Tween-80
[5] = dose: 100.0 mg/kg/injection, schedule: Q04DX003 (ip), vehicle: saline with Tween-80
[6] = dose: 200.0 mg/kg/injection, schedule: Q01DX009 (ip), vehicle: saline with Tween-80
[7] = dose: 200.0 mg/kg/injection, schedule: Q04DX003 (ip), vehicle: saline with Tween-80
[8] = dose: 400.0 mg/kg/injection, schedule: Q01DX009 (ip), vehicle: saline with Tween-80
[9] = dose: 400.0 mg/kg/injection, schedule: Q04DX003 (ip), vehicle: saline with Tween-80
[10] = dose: 100.0 mg/kg/injection, schedule: Q01DX001 (ip), vehicle: saline with Tween-80
[11] = dose: 200.0 mg/kg/injection, schedule: Q01DX001 (ip), vehicle: saline with Tween-80
[12] = dose: 400.0 mg/kg/injection, schedule: Q01DX001 (ip), vehicle: saline with Tween-80
[13] = dose: 100.0 mg/kg/injection, schedule: Q04DX002 (ip), vehicle: Klucel (hydroxypropylcellulose) (HPC)
[14] = dose: 200.0 mg/kg/injection, schedule: Q04DX002 (ip), vehicle: Klucel (hydroxypropylcellulose) (HPC)
[15] = dose: 400.0 mg/kg/injection, schedule: Q04DX002 (ip), vehicle: Klucel (hydroxypropylcellulose) (HPC)
[16] = dose: 50.0 mg/kg/injection, schedule: Q01DX001 (ip), vehicle: saline
[17] = dose: 100.0 mg/kg/injection, schedule: Q01DX001 (ip), vehicle: saline
[18] = dose: 200.0 mg/kg/injection, schedule: Q01DX001 (ip), vehicle: saline
[19] = dose: 400.0 mg/kg/injection, schedule: Q01DX001 (ip), vehicle: saline
[20] = dose: 100.0 mg/kg/injection, schedule: Q01DX009 (ip), vehicle: Klucel (hydroxypropylcellulose) (HPC)
[21] = dose: 200.0 mg/kg/injection, schedule: Q01DX009 (ip), vehicle: Klucel (hydroxypropylcellulose) (HPC)
[22] = dose: 400.0 mg/kg/injection, schedule: Q01DX009 (ip), vehicle: Klucel (hydroxypropylcellulose) (HPC)

Measured: T/C

CNC(=O)C(C)(C)Br
inactive: [1] 105 % of control | [2] 109 % of control | [3] 107 % of control

Oc1ccc(N=Cc2ccc(C=Nc3ccc(O)cc3)cc2)cc1
inactive: [4] 106 % of control | [5] 112 % of control | [6] 100 % of control | [7] 100 % of control | [8] 105 % of control | [9] 100 % of control

CCc1cc(C)cc(OC(=O)Nc2cc(Cl)ccc2OC)c1
inactive: [10] 104 % of control | [4] 95 % of control | dose: 100.0 mg/kg/injection, schedule: Q04DX002 (ip), vehicle: saline with Tween-80 94 % of control and 95 % of control | [11] 93 % of control | [6] 93 % of control | dose: 200.0 mg/kg/injection, schedule: Q04DX002 (ip), vehicle: saline with Tween-80 95 % of control and 90 % of control | [12] 95 % of control | [8] 119 % of control | dose: 400.0 mg/kg/injection, schedule: Q04DX002 (ip), vehicle: saline with Tween-80 95 % of control and 86 % of control

N#Cc1[nH]cnc1/N=N/N(CCF)CCF
inactive: dose: 9.5 mg/kg/injection, schedule: Q01DX009 (ip), vehicle: saline with Tween-80 101 % of control | dose: 18.0 mg/kg/injection, schedule: Q01DX009 (ip), vehicle: saline with Tween-80 121 % of control | dose: 18.0 mg/kg/injection, schedule: Q04DX003 (ip), vehicle: saline with Tween-80 98 % of control | dose: 37.0 mg/kg/injection, schedule: Q04DX003 (ip), vehicle: saline with Tween-80 116 % of control

O=C(Nc1ccc(Cl)cc1)Nc1ncccn1
inactive: [13] 96 % of control | [14] 93 % of control | [15] 96 % of control

O=c1[nH]c2c(cnn2-c2ccccc2)c(=O)n1OS(=O)(=O)c1ccccc1
inactive: [16] 103 % of control | [17] 103 % of control | [18] 100 % of control | [19] 97 % of control

CCOCCC(O)CC (configuration not stated)
inactive: dose: 100.0 mg/kg/injection, schedule: Q01DX009 (ip), vehicle: saline 98 % of control | [1] 90 % of control | dose: 200.0 mg/kg/injection, schedule: Q01DX009 (ip), vehicle: saline 98 % of control | [2] 88 % of control | dose: 400.0 mg/kg/injection, schedule: Q01DX009 (ip), vehicle: saline 98 % of control | [3] 89 % of control

CCOC(=O)CNC(=O)Nc1cc(OC)ccc1OC
inactive: [4] 96 % of control | [6] 95 % of control | [8] 100 % of control

CCCCCCCCCCCCOC(=O)OC1CCC2(C)C(=CCC3C2CCC2(C)C(C(C)CCCC(C)C)CCC32)C1 (configuration not stated)
inactive: dose: 100.0 mg/kg/injection, schedule: Q01DX008 (sc), vehicle: olive oil, sesame oil, peanut oil 111 % of control | dose: 100.0 mg/kg/injection, schedule: Q04DX003 (sc), vehicle: olive oil, sesame oil, peanut oil 109 % of control | dose: 200.0 mg/kg/injection, schedule: Q01DX008 (sc), vehicle: olive oil, sesame oil, peanut oil 107 % of control | dose: 200.0 mg/kg/injection, schedule: Q04DX003 (sc), vehicle: olive oil, sesame oil, peanut oil 100 % of control | dose: 400.0 mg/kg/injection, schedule: Q01DX008 (sc), vehicle: olive oil, sesame oil, peanut oil 107 % of control | dose: 400.0 mg/kg/injection, schedule: Q04DX003 (sc), vehicle: olive oil, sesame oil, peanut oil 109 % of control

Clc1cccc2nsnc12
inactive: [20] 102 % of control | [21] 100 % of control | [22] 102 % of control

COc1cc(Oc2c(OC)cc(/C(C)=N/O)cc2OC)cc(OC)c1OC
inactive: [5] 105 % of control | [7] 92 % of control | [9] 95 % of control

O=[N+]([O-])c1ccc(C(Br)C(Br)c2ccccc2Br)cc1 (configuration not stated)
inactive: [20] 98 % of control | [1] 96 % of control | [21] 102 % of control | [2] 98 % of control | [22] 98 % of control | [3] 96 % of control

O=[N+]([O-])CC1(O)CCCCC1
inactive: dose: 25.0 mg/kg/injection, schedule: Q01DX009 (ip), vehicle: Klucel (hydroxypropylcellulose) (HPC) 97 % of control | dose: 50.0 mg/kg/injection, schedule: Q01DX009 (ip), vehicle: Klucel (hydroxypropylcellulose) (HPC) 98 % of control

CCOC(=O)c1c[nH]c2c(Cl)cccc2c1=O
inactive: [16] 97 % of control | [17] 100 % of control | [18] 94 % of control | [19] 94 % of control

COc1ccc(OC)c(-n2cccc2C(=O)O)c1
inactive: [13] 90 % of control | [14] 97 % of control | [15] 93 % of control

CC1(C)COP(=O)(O)OC1
inactive: dose: 50.0 mg/kg/injection, schedule: Q01DX009 (ip), vehicle: saline with Tween-80 105 % of control | [17] 101 % of control | [4] 96 % of control | [18] 93 % of control | [6] 91 % of control

NCCCCC(=O)NC(CCCCNC(=O)OCc1ccccc1)C(=O)NCCCCC(=O)NC(CCCCNC(=O)OCc1ccccc1)C(=O)NCCCCC(=O)NC(CCCCNC(=O)OCc1ccccc1)C(=O)NCCCCC(=O)NC(CCCCNC(=O)OCc1ccccc1)C(=O)NCCCCC(=O)NC(CCCCNC(=O)OCc1ccccc1)C(=O)NCCCCC(=O)NC(CCCCNC(=O)OCc1ccccc1)C(=O)NCCCCC(=O)NC(CCCCNC(=O)OCc1ccccc1)C(=O)O (configuration not stated)
inactive: [17] 92 % of control | [18] 90 % of control | [19] 95 % of control

Clc1ccc(NC2=NCCS2)cc1
inactive: [20] 104 % of control | [21] 100 % of control | [22] 93 % of control

CC(=O)N1C(=O)NC(=O)C1(CSCc1ccccc1)CSCc1ccccc1
inactive: dose: 50.0 mg/kg/injection, schedule: Q01DX005 (ip), vehicle: saline 104 % of control | dose: 100.0 mg/kg/injection, schedule: Q01DX005 (ip), vehicle: saline 98 % of control | dose: 200.0 mg/kg/injection, schedule: Q01DX005 (ip), vehicle: saline 110 % of control | dose: 400.0 mg/kg/injection, schedule: Q01DX005 (ip), vehicle: saline 94 % of control

CC(C)(CCCOc1ccccc1)NC(=O)c1ccccc1
inactive: [16] 100 % of control | [17] 100 % of control | [18] 103 % of control | [19] 102 % of control

Nc1ccc2ccc(O)cc2c1
inactive: [2] 121 % of control

CCOC(=O)NC(C)c1cccc2ccccc12 (configuration not stated)
inactive: dose: 100.0 mg/kg/injection, schedule: Q04DX003 (ip), vehicle: Klucel (hydroxypropylcellulose) (HPC) 93 % of control | dose: 200.0 mg/kg/injection, schedule: Q04DX003 (ip), vehicle: Klucel (hydroxypropylcellulose) (HPC) 97 % of control | dose: 400.0 mg/kg/injection, schedule: Q04DX003 (ip), vehicle: Klucel (hydroxypropylcellulose) (HPC) 90 % of control

O=[N+]([O-])c1ccc(OCC2CO2)cc1 (configuration not stated)
inactive: dose: 100.0 mg/kg/injection, schedule: Q04DX002 (ip), vehicle: gum acacia 100 % of control | dose: 200.0 mg/kg/injection, schedule: Q04DX002 (ip), vehicle: gum acacia 117 % of control | dose: 400.0 mg/kg/injection, schedule: Q04DX002 (ip), vehicle: gum acacia 88 % of control

NC(=O)c1cc(Cl)cc(N)c1Cl
inactive: [10] 107 % of control | [11] 104 % of control | [12] 117 % of control

O=C(NCCF)NC1CCSCC1
inactive: dose: 100.0 mg/kg/injection, schedule: Q01DX001 (ip), vehicle: other 112 % of control | dose: 200.0 mg/kg/injection, schedule: Q01DX001 (ip), vehicle: other 103 % of control | dose: 400.0 mg/kg/injection, schedule: Q01DX001 (ip), vehicle: other 98 % of control

CCOC(=O)c1cnc(NN)nc1Nc1ccccc1Cl
inactive: [5] 92 % of control | [7] 96 % of control

O/N=C1/CCCC/C1=C/c1ccccc1Cl
inactive: [5] 92 % of control | [7] 100 % of control | [9] 100 % of control
